The conditions of test [1]: cited from earlier work.
The nature of test [2]: 31P NMR of peptide/lipid II mixtures. Format: binding. Particulars: dimethyl sulfoxide.

Ends that are not written are not given here.

As to “ITSISLCTPGC (also: bicyclic or more (positions not given here)) [nisin A]”, the “pyrophosphate 31P peak shift upon nisin binding (in words)” value in test [1] (31P NMR, dimethyl sulfoxide) is “the pyrophosphate peaks shift upfield upon nisin binding”. Moreover, the “binding to lipid II (in words)” value in test [1] is recorded as “binds to the small molecular weight metabolite lipid II”. For the same sequence, the “direction of shift of the new 31P NMR resonances (in words)” value in test [2] (lipid II mixed with peptide) was “both new resonances arising in the nisin/lipid II spectra were shifted upfield”. Moreover, the “binding to lipid II by 31P NMR (in words)” value in test [2] (two new 31P resonances) was “both compounds bind to lipid II”.

Source of the values: publication PMC5920614 (ACS Central Science, 2018).
